# Test results: patent US9365576B2, “Pyrrolopyrrolidinone compounds” (Novartis AG, priority 2012, dated 2016)
# Target: human MDM2 protein (amino acids 2-188) (Homo sapiens (Human), UniProt Q00987)
# Experiment: TR-FRET assay, p53-MDM2 Assay 2 (modified)
# Assay type: binding
# Conditions: TR-FRET; 0.1 nM MDM2, 0.1 nM Europium labeled streptavidin, Tecan genios Pro reader; read-out: IC50 p53-MDM2 Assay 2
# Description: The inhibition of p53-MDM2 and p53-MDM4 interactions is measured by time resolved fluorescence energy transfer (TR-FRET). Fluorescence energy transfer (or Foerster resonance energy transfer) describes an energy transfer between donor and acceptor fluorescent molecules. For this assay, human MDM2 protein (amino acids 2-188) and human MDM4 protein (amino acids 2-185), tagged with a C-terminal biotin moiety, are used in combination with a Europium labeled streptavidin (Perkin Elmer, Inc., Waltham, Mass., USA) serving as the donor fluorophore. The p53 derived, Cy5 labeled peptide Cy5-[…] (p53 aa18-26) is the energy acceptor. Upon excitation of the donor molecule at 340 nm, binding interaction between MDM2 or MDM4 and the p53 peptide induces energy transfer and enhanced response at the acceptor emission wavelength at 665 nm. […] The ratiometric FRET assay readout is calculated from the raw data of the two distinct fluorescence signals measured in time resolved mode (fluorescence 665 nm/fluorescence 620 nm×1000).
# After addition of 1.25 nM MDM2-biotinylated or 2.5 nM MDM4-biotinylated (internal preparations), and 0.625 nM Europium labeled streptavidin (Perkin Elmer), the solution is pre-incubated for 15 minutes at room temperature, then 10 nM Cy5-p53 peptide (internal preparation) is added before an incubation at room temperature for 15 minutes prior to reading the plate. For measurement of samples, a Victor II microplate reader (Perkin Elmer) is used with the following settings: Excitation 340 nm, Emission Donor 620 nm and Emission Acceptor 665 nm. IC50 values are calculated by curve fitting using XLfit. If not specified, reagents are purchased from Sigma-Aldrich Chemie GmBH, Buchs, Switzerland.
# Sequence of human MDM2 protein (amino acids 2-188) (Q00987 2-188): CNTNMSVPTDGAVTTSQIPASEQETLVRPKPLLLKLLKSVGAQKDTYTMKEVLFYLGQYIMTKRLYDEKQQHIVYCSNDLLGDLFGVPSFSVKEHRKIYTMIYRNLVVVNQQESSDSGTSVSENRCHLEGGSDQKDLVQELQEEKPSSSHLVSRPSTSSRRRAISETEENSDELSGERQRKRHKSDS
row,IC50 [nM],Structure (SMILES)
1,0.395,"COc1ncc(-c2cc3c(n2C(C)C)C(c2ccc(Cl)c(F)c2)N(c2cc(Cl)cn(C)c2=O)C3=O)c(OC)n1 (stereo not shown) [Example 196, 6-(4-Chloro-3-fluoro-phenyl)-5-(5-chloro-1-methyl-2-oxo-1,2-dihydro-pyridin-3-yl)-2-(2,4-dimethoxy-pyrimidin-5-yl)-1-isopropyl-5,6-dihydro-1H-pyrrolo[3,4-b]pyrrol-4-one]"
2,1.08,"CNc1ncc(-c2cc3c(n2C(C)C)C(c2ccc(C#N)cc2)N(c2cc(Cl)cn(C)c2=O)C3=O)c(OC)n1 (stereo not shown) [Example 130, 4-[5-(5-Chloro-1-methyl-2-oxo-1,2-dihydro-pyridin-3-yl)-1-isopropyl-2-(4-methoxy-2-methylamino-pyrimidin-5-yl)-4-oxo-1,4,5,6-tetrahydro-pyrrolo[3,4-b]pyrrol-6-yl]-benzonitrile]"
3,0.779,"COc1ncc(-c2cc3c(n2C(C)C)C(c2ccc(C#N)cc2)N(c2cc(Cl)c[nH]c2=O)C3=O)c(OC)n1 (stereo not shown) [Example 126, 4-[5-(5-Chloro-2-oxo-1,2-dihydro-pyridin-3-yl)-2-(2,4-dimethoxy-pyrimidin-5-yl)-1-isopropyl-4-oxo-1,4,5,6-tetrahydro-pyrrolo[3,4-b]pyrrol-6-yl]-benzonitrile]"
4,0.659,"COc1nc(N(C)C)ncc1-c1cc2c(n1C(C)C)C(c1ccc(Cl)cc1)N(c1cn(C)nc1C)C2=O (stereo not shown) [Example 182, 6-(4-Chloro-phenyl)-2-(2-dimethylamino-4-methoxy-pyrimidin-5-yl)-5-(1,3-dimethyl-1H-pyrazol-4-yl)-1-isopropyl-5,6-dihydro-1H-pyrrolo[3,4-b]pyrrol-4-one]"
5,0.169,"COc1ccc(C(=O)O)cc1-c1cc2c(n1C(C)C)C(c1ccc(Cl)cc1)N(c1cc(Cl)ccc1C)C2=O (stereo not shown) [Example 35, 3-[5-(5-Chloro-2-methyl-phenyl)-6-(4-chloro-phenyl)-1-isopropyl-4-oxo-1,4,5,6-tetrahydro-pyrrolo[3,4-b]pyrrol-2-yl]-4-methoxy-benzoic acid]"
6,107,"COc1nc(N(C)C)ncc1-c1cc2c(n1C(C)C)[C@@H](c1ccc(C#N)cc1)N(c1cc(Cl)c[nH]c1=O)C2=O [Example 168, 4-[(R)-5-(5-Chloro-2-oxo-1,2-dihydro-pyridin-3-yl)-2-(2-dimethylamino-4-methoxy-pyrimidin-5-yl)-1-isopropyl-4-oxo-1,4,5,6-tetrahydro-pyrrolo[3,4-b]pyrrol-6-yl]-benzonitrile]"
7,0.254,"COc1cn(C)c(=O)cc1-c1cc2c(n1C(C)C)C(c1ccc(Cl)cc1)N(c1cc(Cl)c(=O)n(C)c1)C2=O (stereo not shown) [Example 150, 5-(5-Chloro-1-methyl-6-oxo-1,6-dihydro-pyridin-3-yl)-6-(4-chloro-phenyl)-1-isopropyl-2-(5-methoxy-1-methyl-2-oxo-1,2-dihydro-pyridin-4-yl)-5,6-dihydro-1H-pyrrolo[3,4-b]pyrrol-4-one]"
8,0.286,"COc1ccc(CO)cc1-c1cc2c(n1C(C)C)C(c1ccc(Cl)cc1C)N(c1cccc(Cl)c1F)C2=O (stereo not shown) [Example 4, 5-(3-Chloro-2-fluoro-phenyl)-6-(4-chloro-2-methyl-phenyl)-2-(5-hydroxymethyl-2-methoxy-phenyl)-1-isopropyl-5,6-dihydro-1H-pyrrolo[3,4-b]pyrrol-4-one]"
9,0.115,"COc1ccc(C(=O)NCCS(C)(=O)=O)cc1-c1cc2c(n1C(C)C)C(c1ccc(Cl)cc1)N(c1cc(Cl)ccc1C)C2=O (stereo not shown) [Example 36, 3-[5-(5-Chloro-2-methyl-phenyl)-6-(4-chloro-phenyl)-1-isopropyl-4-oxo-1,4,5,6-tetrahydro-pyrrolo[3,4-b]pyrrol-2-yl]-N-(2-methanesulfonyl-ethyl)-4-methoxy-benzamide]"
10,0.115,"COc1ccc(CC(N)=O)cc1-c1cc2c(n1C(C)C)C(c1ccc(Cl)cc1)N(c1cc(Cl)ccc1C)C2=O (stereo not shown) [Example 80, 2-{3-[5-(5-Chloro-2-methyl-phenyl)-6-(4-chloro-phenyl)-1-isopropyl-4-oxo-1,4,5,6-tetrahydro-pyrrolo[3,4-b]pyrrol-2-yl]-4-methoxy-phenyl}-acetamide]"
11,0.341,"COc1nc(N)ncc1-c1cc2c(n1C(C)C)C(c1ccc(Cl)cc1)N(c1c[nH]c(=O)c(Cl)c1)C2=O (stereo not shown) [Example 138, 2-(2-Amino-4-methoxy-pyrimidin-5-yl)-5-(5-chloro-6-oxo-1,6-dihydro-pyridin-3-yl)-6-(4-chloro-phenyl)-1-isopropyl-5,6-dihydro-1H-pyrrolo[3,4-b]pyrrol-4-one]"
12,0.359,"COc1cnc(CC#N)cc1-c1cc2c(n1C(C)C)C(c1ccc(C#N)cc1)N(c1cccc(Cl)c1F)C2=O (stereo not shown) [Example 87, 4-[5-(3-Chloro-2-fluoro-phenyl)-2-(2-cyanomethyl-5-methoxy-pyridin-4-yl)-1-isopropyl-4-oxo-1,4,5,6-tetrahydro-pyrrolo[3,4-b]pyrrol-6-yl]-benzonitrile]"
13,0.509,"COc1nc(N)ncc1-c1cc2c(n1C(C)C)C(c1ccc(Cl)cc1)N(c1cc(Cl)cnc1OC)C2=O (stereo not shown) [Example 206, 2-(2-Amino-4-methoxy-pyrimidin-5-yl)-5-(5-chloro-2-methoxy-pyridin-3-yl)-6-(4-chloro-phenyl)-1-isopropyl-5,6-dihydro-1H-pyrrolo[3,4-b]pyrrol-4-one]"
14,0.257,"COc1nc(N(C)C)ncc1-c1cc2c(n1C(C)C)C(c1ccc(C#N)c(F)c1)N(c1cc(Cl)cn(C)c1=O)C2=O (stereo not shown) [Example 199, 4-[5-(5-Chloro-1-methyl-2-oxo-1,2-dihydro-pyridin-3-yl)-2-(2-dimethylamino-4-methoxy-pyrimidin-5-yl)-1-isopropyl-4-oxo-1,4,5,6-tetrahydro-pyrrolo[3,4-b]pyrrol-6-yl]-2-fluoro-benzonitrile]"
15,4.16,"CCOC(=O)Cc1cnc(OC)c(-c2cc3c(n2C(C)C)C(c2ccc(C#N)cc2)N(c2cccc(Cl)c2F)C3=O)c1 (stereo not shown) [Example 83, {5-[5-(3-Chloro-2-fluoro-phenyl)-6-(4-cyano-phenyl)-1-isopropyl-4-oxo-1,4,5,6-tetrahydro-pyrrolo[3,4-b]pyrrol-2-yl]-6-methoxy-pyridin-3-yl}-acetic acid ethyl ester]"
16,0.266,"COc1ncc(-c2cc3c(n2C(C)C)C(c2ccc(Cl)cc2)N(c2c[nH]c(=O)c(Cl)c2)C3=O)c(OC)n1 (stereo not shown) [Example 139, 5-(5-Chloro-6-oxo-1,6-dihydro-pyridin-3-yl)-6-(4-chloro-phenyl)-2-(2,4-dimethoxy-pyrimidin-5-yl)-1-isopropyl-5,6-dihydro-1H-pyrrolo[3,4-b]pyrrol-4-one]"
17,0.164,"COc1nc(N(C)C)ncc1-c1cc2c(n1C(C)C)C(c1ccc(Cl)cc1C)N(c1cc(Cl)c(=O)n(C)c1)C2=O (stereo not shown) [Example 147, 5-(5-Chloro-1-methyl-6-oxo-1,6-dihydro-pyridin-3-yl)-6-(4-chloro-2-methyl-phenyl)-2-(2-dimethylamino-4-methoxy-pyrimidin-5-yl)-1-isopropyl-5,6-dihydro-1H-pyrrolo[3,4-b]pyrrol-4-one]"
18,1.64,"COc1ncc(-c2cc3c(n2C(C)C)C(c2ccc(Cl)cc2)N(C2CCOCC2)C3=O)c(OC)n1 (stereo not shown) [Example 76, 6-(4-Chloro-phenyl)-2-(2,4-dimethoxy-pyrimidin-5-yl)-1-isopropyl-5-(tetrahydro-pyran-4-yl)-5,6-dihydro-1H-pyrrolo[3,4-b]pyrrol-4-one]"
19,0.316,"COc1nc(N(C)C)ncc1-c1cc2c(n1C(C)C)C(c1ccc(Cl)cc1)N(c1cc(Cl)ccc1C#N)C2=O (stereo not shown) [Example 100, 4-Chloro-2-[6-(4-chloro-phenyl)-2-(2-dimethylamino-4-methoxy-pyrimidin-5-yl)-1-isopropyl-4-oxo-4,6-dihydro-1H-pyrrolo[3,4-b]pyrrol-5-yl]-benzonitrile]"
20,144,"COc1ncc(-c2cc3c(n2C(C)C)[C@@H](c2ccc(C#N)cc2)N(c2cc(Cl)c(=O)n(C)c2)C3=O)c(OC)n1 [Example 187, 4-[(R)-5-(5-Chloro-1-methyl-6-oxo-1,6-dihydro-pyridin-3-yl)-2-(2,4-dimethoxy-pyrimidin-5-yl)-1-isopropyl-4-oxo-1,4,5,6-tetrahydro-pyrrolo[3,4-b]pyrrol-6-yl]-benzonitrile]"
21,0.14,"COc1ncc(-c2c(C(=O)O)c3c(n2C(C)C)C(c2ccc(Cl)cc2)N(c2cc(Cl)c(=O)n(C)c2)C3=O)c(OC)n1 (stereo not shown) [Example 221, 5-(5-Chloro-1-methyl-6-oxo-1,6-dihydro-pyridin-3-yl)-6-(4-chloro-phenyl)-2-(2,4-dimethoxy-pyrimidin-5-yl)-1-isopropyl-4-oxo-1,4,5,6-tetrahydro-pyrrolo[3,4-b]pyrrole-3-carboxylic acid]"
22,28.3,"[2H]C([2H])([2H])Oc1ncc(-c2cc3c(n2C(C)C)[C@@H](c2ccc(Cl)cc2)N(c2cc(Cl)c(=O)n(C)c2)C3=O)c(OC([2H])([2H])[2H])n1 [Example 219, (R)-5-(5-Chloro-1-methyl-6-oxo-1,6-dihydro-pyridin-3-yl)-6-(4-chloro-phenyl)-2-(2,4-d6-dimethoxy-pyrimidin-5-yl)-1-isopropyl-5,6-dihydro-1H-pyrrolo[3,4-b]pyrrol-4-one]"
